Data: ChEMBL document CHEMBL4251747 (Bioorg Med Chem, 2018)

Experiments:
[1] = Solubility of the compound; format: physicochemical
Aurora kinase A = molecular target: T1, Aurora kinase A (Homo sapiens, UniProt O14965); experiment: Inhibition of full length N-terminal His-tagged Aurora A (unknown origin) using fluorescence-labeled FL-Peptide 21 as substrate after 60 mins in presence of ATP by fluorescence assay based Cheng-Prusoff equation analysis
T1 sequence (O14965 whole entry): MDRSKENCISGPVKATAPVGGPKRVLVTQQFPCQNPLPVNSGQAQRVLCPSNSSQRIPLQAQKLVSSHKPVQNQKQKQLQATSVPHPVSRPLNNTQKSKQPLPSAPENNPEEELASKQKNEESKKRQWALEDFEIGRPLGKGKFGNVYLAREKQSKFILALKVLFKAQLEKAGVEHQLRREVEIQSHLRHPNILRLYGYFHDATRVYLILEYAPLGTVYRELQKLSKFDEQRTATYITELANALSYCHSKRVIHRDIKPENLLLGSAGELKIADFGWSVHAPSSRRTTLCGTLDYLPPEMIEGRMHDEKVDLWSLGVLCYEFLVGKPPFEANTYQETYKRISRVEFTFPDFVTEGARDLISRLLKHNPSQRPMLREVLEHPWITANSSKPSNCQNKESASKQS

[2] = molecular target: Aurora kinase B/Inner centromere protein (Homo sapiens, UniProt Q96GD4); experiment: Inhibition of human full length N-terminal GST-tagged Aurora B (1 to 344 end residues)/His-tagged INCENP (803 to 918 end residues) expressed in baculovirus expression system using fluorescence-labeled FL-Peptide 21 as substrate after 60 mins in presence of ATP by fluorescence assay based Cheng-Prusoff equation analysis
[3] = molecular target: T2, Dual specificity protein kinase TTK (Homo sapiens, UniProt P33981); experiment: Inhibition of full length human Mps1 using fluorescence-labeled H236 peptide as substrate after 60 to 90 mins in presence of ATP by fluorescence assay based Cheng-Prusoff equation analysis
T2 sequence (P33981 whole entry): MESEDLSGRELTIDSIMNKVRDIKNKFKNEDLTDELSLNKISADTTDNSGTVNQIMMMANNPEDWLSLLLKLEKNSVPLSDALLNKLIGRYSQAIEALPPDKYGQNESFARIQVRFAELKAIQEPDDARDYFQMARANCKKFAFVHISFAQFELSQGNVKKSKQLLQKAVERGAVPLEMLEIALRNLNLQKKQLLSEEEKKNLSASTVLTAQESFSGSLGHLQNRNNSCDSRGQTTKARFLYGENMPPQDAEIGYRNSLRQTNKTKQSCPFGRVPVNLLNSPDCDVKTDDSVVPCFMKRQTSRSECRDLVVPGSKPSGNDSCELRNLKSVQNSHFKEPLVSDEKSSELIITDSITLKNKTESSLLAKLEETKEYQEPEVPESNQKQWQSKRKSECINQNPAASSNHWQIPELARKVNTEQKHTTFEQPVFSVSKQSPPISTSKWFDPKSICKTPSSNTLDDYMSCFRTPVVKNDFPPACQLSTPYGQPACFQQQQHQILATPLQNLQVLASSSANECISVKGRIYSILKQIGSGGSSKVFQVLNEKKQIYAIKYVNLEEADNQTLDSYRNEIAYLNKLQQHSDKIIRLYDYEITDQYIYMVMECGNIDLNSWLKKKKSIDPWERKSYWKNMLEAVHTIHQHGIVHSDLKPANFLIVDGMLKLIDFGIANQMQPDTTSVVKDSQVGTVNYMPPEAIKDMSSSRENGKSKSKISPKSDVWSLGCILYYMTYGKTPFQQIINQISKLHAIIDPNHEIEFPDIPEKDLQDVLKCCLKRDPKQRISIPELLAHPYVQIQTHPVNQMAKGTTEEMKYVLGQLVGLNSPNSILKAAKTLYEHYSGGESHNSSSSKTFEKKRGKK

Aurora kinase B/Inner centromere protein, sequence (Q96GD4 whole entry): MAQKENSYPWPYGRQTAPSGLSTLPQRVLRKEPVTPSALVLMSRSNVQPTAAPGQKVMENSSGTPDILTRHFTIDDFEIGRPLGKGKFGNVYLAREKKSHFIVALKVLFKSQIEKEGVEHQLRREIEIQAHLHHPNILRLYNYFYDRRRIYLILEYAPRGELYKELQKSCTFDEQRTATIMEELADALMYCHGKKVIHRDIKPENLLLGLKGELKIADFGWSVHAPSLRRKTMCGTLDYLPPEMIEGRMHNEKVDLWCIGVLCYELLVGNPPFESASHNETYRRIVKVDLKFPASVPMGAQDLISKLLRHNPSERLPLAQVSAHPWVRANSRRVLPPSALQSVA
Aurora kinase B/Inner centromere protein, sequence (Q9NQS7 whole entry, further chain): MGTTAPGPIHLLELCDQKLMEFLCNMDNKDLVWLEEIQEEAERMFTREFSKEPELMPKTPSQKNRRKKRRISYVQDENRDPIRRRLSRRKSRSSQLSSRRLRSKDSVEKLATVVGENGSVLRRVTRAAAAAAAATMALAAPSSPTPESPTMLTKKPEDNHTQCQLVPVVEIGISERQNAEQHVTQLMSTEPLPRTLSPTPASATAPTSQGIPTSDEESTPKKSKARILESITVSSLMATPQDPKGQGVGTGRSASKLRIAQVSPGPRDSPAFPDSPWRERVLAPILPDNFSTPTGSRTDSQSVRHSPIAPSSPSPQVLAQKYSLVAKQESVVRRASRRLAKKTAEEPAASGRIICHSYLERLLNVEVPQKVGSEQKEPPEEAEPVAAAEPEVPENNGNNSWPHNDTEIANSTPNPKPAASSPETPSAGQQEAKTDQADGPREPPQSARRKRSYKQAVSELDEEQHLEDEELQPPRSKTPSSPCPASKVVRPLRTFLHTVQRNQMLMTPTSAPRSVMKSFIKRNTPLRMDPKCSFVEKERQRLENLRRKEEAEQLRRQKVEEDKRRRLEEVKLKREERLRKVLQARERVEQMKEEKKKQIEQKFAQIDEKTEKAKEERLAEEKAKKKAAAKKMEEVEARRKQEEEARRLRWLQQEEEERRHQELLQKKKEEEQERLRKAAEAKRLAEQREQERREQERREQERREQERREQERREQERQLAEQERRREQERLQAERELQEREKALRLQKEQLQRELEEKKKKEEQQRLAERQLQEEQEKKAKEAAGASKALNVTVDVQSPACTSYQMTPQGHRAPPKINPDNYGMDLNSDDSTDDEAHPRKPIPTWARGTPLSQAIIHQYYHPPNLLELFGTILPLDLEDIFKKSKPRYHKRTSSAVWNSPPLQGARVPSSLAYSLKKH

solubility [1] | Ki (Aurora kinase A) | Ki [2] | Ki [3] | Structure (SMILES)
Insoluble | – | – | – | O=C(Nc1cc(-c2ccncc2)c[nH]c1=O)c1ccccc1
– | > 100 µM | 12.9 µM | 367 µM | CN(C)Cc1ccc(-c2c[nH]c(=O)c(N)c2)cc1
– | 99.5 µM | 103 µM | 236 µM | Cn1cc(-c2ccncc2)cc(N)c1=O
Insoluble | – | – | – | CN1CCN(c2ccc(C(=O)Nc3cc(-c4ccncc4)c[nH]c3=O)cc2)CC1
Insoluble | – | – | – | O=C(Nc1cc(-c2ccnc(NC3CC3)n2)c[nH]c1=O)c1ccccc1
